Biological target: Transient receptor potential cation channel subfamily V member 1 (Rattus norvegicus, UniProt O35433)
Test: Agonist activity at rat TRPV1 expressed in CHO cells assessed as maximal calcium uptake

Sequence of Transient receptor potential cation channel subfamily V member 1 (O35433 whole entry): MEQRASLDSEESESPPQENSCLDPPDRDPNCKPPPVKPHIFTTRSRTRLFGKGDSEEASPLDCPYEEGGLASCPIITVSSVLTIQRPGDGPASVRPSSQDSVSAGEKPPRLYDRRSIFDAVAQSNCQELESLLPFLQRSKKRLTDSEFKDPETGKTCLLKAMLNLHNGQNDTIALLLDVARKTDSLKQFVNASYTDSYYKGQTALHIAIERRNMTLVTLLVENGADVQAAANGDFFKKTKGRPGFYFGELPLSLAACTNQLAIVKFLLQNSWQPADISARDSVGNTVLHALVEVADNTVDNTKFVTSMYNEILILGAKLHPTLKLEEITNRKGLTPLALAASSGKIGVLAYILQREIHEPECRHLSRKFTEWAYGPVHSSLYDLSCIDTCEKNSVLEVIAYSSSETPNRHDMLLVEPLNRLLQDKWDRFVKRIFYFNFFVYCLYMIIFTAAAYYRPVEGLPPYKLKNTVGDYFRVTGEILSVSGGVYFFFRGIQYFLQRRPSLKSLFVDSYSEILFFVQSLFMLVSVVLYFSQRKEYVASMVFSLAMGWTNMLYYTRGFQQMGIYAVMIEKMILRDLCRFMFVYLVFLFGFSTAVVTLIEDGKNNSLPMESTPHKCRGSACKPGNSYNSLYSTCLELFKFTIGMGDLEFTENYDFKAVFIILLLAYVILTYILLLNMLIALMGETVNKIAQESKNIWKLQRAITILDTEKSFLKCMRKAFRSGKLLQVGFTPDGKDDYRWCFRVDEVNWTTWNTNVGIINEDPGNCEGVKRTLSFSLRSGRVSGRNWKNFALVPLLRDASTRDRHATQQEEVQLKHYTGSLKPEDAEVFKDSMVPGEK

Q: With `COc1cc(CNC(=S)NC(COC(=O)C(C)(C)C)Cc2ccc(C(C)(C)C)cc2)ccc1O` (stereo unspecified) [2-(3-(4-hydroxy-3-methoxybenzyl)thioureido)-3-(4-tert-butylphenyl)propyl pivalate] as the compound, how does the EC50 read?
A: 5.7 nM

Reference: BindingDB's records for doi:10.1016/j.bmcl.2006.09.059 (Seoul National University, 2006)
